Results taken from article PMC3267002 (Bioorganic & medicinal chemistry, 2011).
Where a name gives a salt, the structure may show the parent alone.

Legend:
D4 receptor = molecular target: T1, D4 receptor (Homo sapiens, UniProt P21917); experiment: NIMH-PDSP radioligand binding, D4; conditions: compared to the methylene analog (so in the source)
T1 sequence (P21917 1-419): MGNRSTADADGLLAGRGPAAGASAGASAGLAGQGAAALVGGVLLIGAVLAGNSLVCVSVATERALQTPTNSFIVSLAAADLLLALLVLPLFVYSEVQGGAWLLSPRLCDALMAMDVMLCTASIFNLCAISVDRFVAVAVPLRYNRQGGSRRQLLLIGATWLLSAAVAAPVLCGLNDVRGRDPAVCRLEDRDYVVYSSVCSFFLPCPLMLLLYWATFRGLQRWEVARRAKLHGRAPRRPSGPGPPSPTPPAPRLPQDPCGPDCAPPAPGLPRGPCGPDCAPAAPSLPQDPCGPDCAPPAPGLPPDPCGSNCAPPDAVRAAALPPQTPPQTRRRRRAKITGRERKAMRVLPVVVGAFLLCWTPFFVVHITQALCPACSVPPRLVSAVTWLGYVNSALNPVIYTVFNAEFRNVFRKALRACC

5HT2C receptor = molecular target: T2, 5HT2C receptor (Homo sapiens, UniProt P28335); experiment: NIMH-PDSP radioligand binding, 5HT2C
T2 sequence (P28335 33-458): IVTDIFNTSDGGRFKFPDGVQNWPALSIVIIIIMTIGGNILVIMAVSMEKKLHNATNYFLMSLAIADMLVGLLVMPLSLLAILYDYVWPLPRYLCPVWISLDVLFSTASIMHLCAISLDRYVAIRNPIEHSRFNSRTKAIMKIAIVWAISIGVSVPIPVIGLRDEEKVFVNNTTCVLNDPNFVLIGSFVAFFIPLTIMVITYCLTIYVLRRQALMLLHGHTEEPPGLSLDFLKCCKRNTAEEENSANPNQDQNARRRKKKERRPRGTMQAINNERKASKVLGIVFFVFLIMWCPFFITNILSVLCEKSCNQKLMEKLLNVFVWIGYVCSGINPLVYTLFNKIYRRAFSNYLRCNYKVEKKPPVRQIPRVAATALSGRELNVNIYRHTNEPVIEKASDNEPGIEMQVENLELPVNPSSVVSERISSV

D2 receptor = D2 receptor (Homo sapiens, UniProt P14416); experiment: NIMH-PDSP radioligand binding, D2; conditions: compound 15 as the template
Sequence of D2 receptor (P14416 whole entry): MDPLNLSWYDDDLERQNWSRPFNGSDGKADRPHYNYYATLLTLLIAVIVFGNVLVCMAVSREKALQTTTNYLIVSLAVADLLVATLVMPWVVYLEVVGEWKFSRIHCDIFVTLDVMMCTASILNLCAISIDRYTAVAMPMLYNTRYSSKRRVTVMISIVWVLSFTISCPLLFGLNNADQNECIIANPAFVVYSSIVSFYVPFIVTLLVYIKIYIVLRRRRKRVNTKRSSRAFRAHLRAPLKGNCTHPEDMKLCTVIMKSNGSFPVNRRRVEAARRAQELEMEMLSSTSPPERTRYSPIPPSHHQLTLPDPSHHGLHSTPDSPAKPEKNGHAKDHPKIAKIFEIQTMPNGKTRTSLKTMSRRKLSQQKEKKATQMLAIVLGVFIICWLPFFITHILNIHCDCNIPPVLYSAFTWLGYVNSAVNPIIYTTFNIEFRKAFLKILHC

5HT1A receptor = molecular target: T3, 5HT1A receptor (Homo sapiens, UniProt P08908); experiment: NIMH-PDSP radioligand binding, 5HT1A; conditions: compound 15 as the template
T3 sequence (P08908 1-422): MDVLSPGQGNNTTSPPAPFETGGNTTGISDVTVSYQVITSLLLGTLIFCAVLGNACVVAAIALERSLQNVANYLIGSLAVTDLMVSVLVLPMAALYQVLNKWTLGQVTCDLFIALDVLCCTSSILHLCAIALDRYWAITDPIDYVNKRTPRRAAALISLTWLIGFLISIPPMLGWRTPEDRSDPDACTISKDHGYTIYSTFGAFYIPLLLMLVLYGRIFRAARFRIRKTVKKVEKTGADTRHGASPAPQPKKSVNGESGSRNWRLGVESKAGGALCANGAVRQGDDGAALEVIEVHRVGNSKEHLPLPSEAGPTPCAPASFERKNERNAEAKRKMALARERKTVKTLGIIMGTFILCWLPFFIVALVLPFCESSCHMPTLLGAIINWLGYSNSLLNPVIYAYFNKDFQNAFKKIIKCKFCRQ

Ki (5HT2C receptor) [µM]	Structure (SMILES)	further results
–	OC1(c2ccc(Cl)cc2)CCN(CCCSc2ccc(F)cc2)CC1 [Compound 6, 4-(4-chlorophenyl)-1-(3-((4-fluorophenyl)thio)propyl)piperidin-4-ol]	decrease in binding at the D4 receptor (D4 receptor): over 24 fold
–	OC1(c2ccc(Cl)cc2)CCN(CCCOc2ccc(F)cc2)CC1 [Compound 7, 4-(4-Chloro-phenyl)-1-[3-(4-fluoro-phenoxy)-propyl]-piperidin-4-ol]	increase in binding at the D4 receptor (D4 receptor): over 4 fold
> 10	Fc1ccc(SCCCN2CCC(c3ccc(Cl)cc3)CC2)cc1 [Compound 8, 4-(4-Chlorophenyl)-1-(3-((4-fluorophenyl)thio)propyl)piperidine hydrochloride]	–
> 10	Fc1ccc(OCCCN2CCC(c3ccc(Cl)cc3)CC2)cc1 [Compound 9, 4-(4-Chlorophenyl)-1-(3-(4-fluorophenoxy)propyl)piperidine]	–
> 10	[O-][S+](CCCN1CCC(c2ccc(Cl)cc2)CC1)c1ccc(F)cc1 (centres unmarked) [Compound 10, 4-(4-Chlorophenyl)-1-(3-((4-fluorophenyl)sulfinyl)propyl)piperidine HCl]	–
–	Fc1ccc(OCCCN2CCN(c3ccccc3)CC2)cc1 [Compound 16, 1-(3-(4-Fluorophenoxy)propyl)-4-phenylpiperazine]	increase in binding at the D2 receptor (D2 receptor): over 10 fold
–	Clc1ccc(N2CCN(CCCOc3ccccc3)CC2)cc1 [Compound 17, 1-(4-Chlorophenyl)-4-(3-phenoxypropyl)piperazine HCl]	binding increased by a factor, 5HT1A receptor (5HT1A receptor): 3
> 10	Fc1ccc(OCCCN2CCN(c3ncccn3)CC2)cc1 [Compound 22, 2-(4-(3-(4-Fluorophenoxy)propyl)piperazin-1-yl)pyrimidine]	–
